From patent EP1091938B1, “ANTIHISTAMINIC PIPERIDINE DERIVATIVES AND INTERMEDIATES FOR THE PREPARATION THEREOF” (Aventisub II Inc., priority 1998, dated 2000)
pKi: −log10 of the molar value.

What was measured:
[1] = molecular target: T1, H1-histaminergic receptors (Rattus norvegicus, UniProt P31390); test: [3H] pyrilamine binding in rat cortex membranes; settings: displacement of 3H pyrilamine (2 nM final), rat cortex homogenate, 30 minute incubation at room temperature; Ki from IC50 with the Cheng-Prusoff equation
T1 construct: The brains of young male rats are removed; The cortici are dissected; from tissue; host or cells: rat brain cortex membrane homogenate
Description: Antihistaminic potential is measured by affinity of a test compound for [^3H] pyrilamine binding sites associated with the antagonist component of H1-histaminergic receptors in animal brain membranes. Affinity for this receptor is indicative of the potential of a test compound to interact with central and peripheral H1-histaminergic receptors.
The following method is used to determine the affinity of test compounds for [^3H] pyrilamine binding sites in rat cortex.
The brains of young male rats are removed. The cortici are dissected and stored at -20°C or immediately used. The tissue is homogenized in 10 ml of ice-cold […] K/NaPO4 buffer (pH 7.4) using a Polytron (setting 6 for 15 seconds). […]
The brains of young male rats are removed. […] The filters are either transferred to scintillation vials and 10 ml Quicksafe A is added for liquid scintillation spectrometry or a thin layer of solid scintillant is melted onto the filters and the filters then counted using a betaplate beta counter. Specific binding of ^3H pyrilamine is measured as the excess over blanks taken in the presence of 2.10-6 M promethazine. Protein content of the membranes is determined by the method of Lowry et al., J. Biol. Chem. 193, 265-275 (1951). Displacement curves are analyzed using the GraphPad (GraphPad Software, Inc.) or similar program to obtain Hill slopes and IC50 values. […]

[2] = extent of first pass metabolism to two primary metabolites; cited from earlier work

T1 sequence (P31390 whole entry): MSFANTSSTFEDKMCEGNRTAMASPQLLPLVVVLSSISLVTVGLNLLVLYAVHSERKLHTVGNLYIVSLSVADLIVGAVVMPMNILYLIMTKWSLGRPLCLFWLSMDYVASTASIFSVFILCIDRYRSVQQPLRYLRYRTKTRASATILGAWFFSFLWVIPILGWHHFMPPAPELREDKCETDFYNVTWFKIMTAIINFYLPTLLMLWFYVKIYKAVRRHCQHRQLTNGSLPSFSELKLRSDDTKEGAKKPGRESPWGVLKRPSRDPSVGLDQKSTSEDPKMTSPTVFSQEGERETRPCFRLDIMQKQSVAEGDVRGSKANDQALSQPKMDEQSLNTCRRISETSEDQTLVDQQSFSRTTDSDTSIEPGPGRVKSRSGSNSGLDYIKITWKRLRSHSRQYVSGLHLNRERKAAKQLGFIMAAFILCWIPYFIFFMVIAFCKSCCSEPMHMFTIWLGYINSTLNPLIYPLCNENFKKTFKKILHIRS

Row | Compound | pKi [1] | first pass metabolism [2] [%]
1 | CC(CO)(C(=O)O)c1ccc(C(O)CCCN2CCC(C(O)(c3ccccc3)c3ccccc3)CC2)cc1 (stereo not drawn) [4-[1-hydroxy-4-[4-(hydroxydiphenylmethyl)-1-piperidinyl]butyl]-α-(hydroxymethyl)-α-methyl-benzeneacetic acid] | 6.44 | 
2 | CC(C)(C)c1ccc(C(O)CCCN2CCC(C(O)(c3ccccc3)c3ccccc3)CC2)cc1 (stereo not drawn) [Terfenadine, α-[4-(1,1-dimethylethyl)phenyl]-4-(hydroxydiphenylmethyl)-1-piperidinebutanol] |  | 99
